In ChEMBL document CHEMBL1275533, “In vitro antibacterial activity of vertilmicin and its susceptibility to modifications by the recombinant AAC6'-APH2'' enzyme” (2008):
≈ marks a conversion by molar mass, not a printed value. Calls of active or inactive are those of the source. The rule behind the calls is not given here.

Tests used:
Klebsiella pneumoniae [1] = assay: Antibacterial activity against non-gentamicin-resistant Klebsiella pneumoniae clinical isolate after 18 hrs by agar dilution method; assay type: functional
Enterobacter cloacae = assay: Antibacterial activity against non-gentamicin-resistant Enterobacter cloacae clinical isolate after 18 hrs by agar dilution method; assay type: functional
Proteus mirabilis [2] = assay: Antibacterial activity against non-gentamicin-resistant Proteus mirabilis clinical isolate after 18 hrs by agar dilution method; assay type: functional
Serratia marcescens [3] = assay: Antibacterial activity against non-gentamicin-resistant Serratia marcescens clinical isolate after 18 hrs by agar dilution method; assay type: functional
Morganella morganii [4] = assay: Antibacterial activity against non-gentamicin-resistant Morganella morganii clinical isolate after 18 hrs by agar dilution method; assay type: functional
[5] = test system: Staphylococcus epidermidis; assay: Antibacterial activity against non-gentamicin-resistant Staphylococcus epidermidis clinical isolate after 18 hrs by agar dilution method; assay type: functional
Klebsiella pneumoniae [6] = assay: Antibacterial activity against non-gentamicin-resistant Klebsiella pneumoniae clinical isolate assessed as susceptible isolates after 18 hrs by agar dilution method; assay type: functional
Proteus mirabilis [7] = assay: Antibacterial activity against non-gentamicin-resistant Proteus mirabilis clinical isolate assessed as susceptible isolates after 18 hrs by agar dilution method; assay type: functional
Serratia marcescens [8] = assay: Antibacterial activity against non-gentamicin-resistant Serratia marcescens clinical isolate assessed as susceptible isolates after 18 hrs by agar dilution method; assay type: functional
Morganella morganii [9] = assay: Antibacterial activity against non-gentamicin-resistant Morganella morganii clinical isolate assessed as susceptible isolates after 18 hrs by agar dilution method; assay type: functional
[10] = test system: Haemophilus parainfluenzae; assay: Antibacterial activity against non-gentamicin-resistant Haemophilus parainfluenzae clinical isolate assessed as susceptible isolates after 18 hrs by agar dilution method; assay type: functional, organism-based
[11] = test system: Staphylococcus epidermidis; assay: Antibacterial activity against non-gentamicin-resistant Staphylococcus epidermidis clinical isolate assessed as susceptible isolates after 18 hrs by agar dilution method; assay type: functional
Escherichia coli [12] = assay: Antibacterial activity against gentamicin-resistant Escherichia coli clinical isolate after 18 hrs by agar dilution method; assay type: functional
Klebsiella pneumoniae [13] = assay: Antibacterial activity against gentamicin-resistant Klebsiella pneumoniae clinical isolate after 18 hrs by agar dilution method; assay type: functional
Klebsiella aerogenes = assay: Antibacterial activity against gentamicin-resistant Enterobacter aerogenes clinical isolate after 18 hrs by agar dilution method; assay type: functional
Providencia rettgeri = assay: Antibacterial activity against gentamicin-resistant Proteus rettgeri clinical isolate after 18 hrs by agar dilution method; assay type: functional
[14] = test system: Acinetobacter calcoaceticus; assay: Antibacterial activity against gentamicin-resistant Acinetobacter calcoaceticus clinical isolate after 18 hrs by agar dilution method; assay type: functional
Klebsiella pneumoniae [15] = assay: Antibacterial activity against gentamicin-resistant Klebsiella pneumoniae clinical isolate assessed as susceptible isolates after 18 hrs by agar dilution method; assay type: functional
Citrobacter koseri = assay: Antibacterial activity against gentamicin-resistant Citrobacter diversus clinical isolate assessed as susceptible isolates after 18 hrs by agar dilution method; assay type: functional
Serratia marcescens [16] = assay: Antibacterial activity against gentamicin-resistant Serratia marcescens clinical isolate assessed as susceptible isolates after 18 hrs by agar dilution method; assay type: functional
Citrobacter freundii = assay: Antibacterial activity against gentamicin-resistant Citrobacter freundii clinical isolate assessed as susceptible isolates after 18 hrs by agar dilution method; assay type: functional
[17] = test system: Acinetobacter calcoaceticus; assay: Antibacterial activity against gentamicin-resistant Acinetobacter calcoaceticus clinical isolate assessed as susceptible isolates after 18 hrs by agar dilution method; assay type: functional
Klebsiella pneumoniae [18] = assay: Antibacterial activity against Klebsiella pneumoniae isolate 01-21 after 18 hrs by agar dilution method; assay type: functional; conditions: isolate 01-21, 18 h
Staphylococcus aureus [19] = assay: Antibacterial activity against Staphylococcus aureus ATCC 29213 after 18 hrs by agar dilution method; assay type: functional; conditions: ATCC 29213, 18 h
[20] = test system: Staphylococcus epidermidis; assay: Antibacterial activity against Staphylococcus epidermidis isolate 01-55 after 18 hrs by agar dilution method; assay type: functional; conditions: isolate 01-55, 18 h
Escherichia coli [21] = assay: Antibacterial activity against Escherichia coli ATCC 25922 at MIC up to 8 hrs by time-kill study; assay type: functional, organism-based
Klebsiella pneumoniae [22] = assay: Antibacterial activity against Klebsiella pneumoniae isolate 01-21 at 1 MIC up to 8 hrs by time-kill study; assay type: functional, organism-based
Staphylococcus aureus [23] = assay: Bactericidal activity against Staphylococcus aureus ATCC 29213 at >=1 MIC up to 8 hrs by time-kill study; assay type: functional, organism-based
[24] = test system: Staphylococcus epidermidis; assay: Bactericidal activity against Staphylococcus epidermidis isolate 01-55 at >=1 MIC up to 8 hrs by time-kill study; assay type: functional, organism-based
[25] = test system: Escherichia coli BL21(DE3); assay: Acetylation activity of AAC(6')-APH(2'') in Escherichia coli BL21(DE3) assessed as production of free pyridine-4-thiolate relative to netilmicin
[26] = test system: Escherichia coli BL21(DE3); assay: Ratio of Vmax to Km for AAC(6')-APH(2'') in Escherichia coli BL21(DE3) assessed as production of free pyridine-4-thiolate relative to netilmicin
[27] = test system: Escherichia coli BL21(DE3); assay: Phosphorylation activity of AAC(6')-APH(2'') in Escherichia coli BL21(DE3) assessed as oxidation of NADH by pyruvate kinase relative to verdamicin
[28] = test system: Escherichia coli BL21(DE3); assay: Ratio of Vmax to Km for AAC(6')-APH(2'') in Escherichia coli BL21(DE3) assessed as oxidation of NADH by pyruvate kinase relative to netilmicin
Escherichia coli [29] = assay: microbe, parasite or virus in culture; conditions: ATCC 25922, 18 h
Description: Antibacterial activity against Escherichia coli ATCC 25922 after 18 hrs by agar dilution method

With `CCN[C@@H]1C[C@H](N)[C@@H](O[C@@H]2OC(C(C)N)=CC[C@@H]2N)[C@H](O)[C@H]1O[C@H]1OC[C@](C)(O)[C@H](NC)[C@H]1O` (stereo partly specified) [VERTILMICIN] as the compound, how does the MIC50 (Klebsiella pneumoniae [1]) read?
Its MIC50 is 0.25 µg/mL (≈ 0.511 µM).

And the MIC90 (Klebsiella pneumoniae [1])?
The MIC90 was 0.5 µg/mL (≈ 1.02 µM).

What about the MIC50 (Enterobacter cloacae) of the same compound?
The MIC50 was 0.25 µg/mL (≈ 0.511 µM).

What about the MIC90 (Enterobacter cloacae) of the same compound?
Its MIC90 is 0.5 µg/mL (≈ 1.02 µM).

And the MIC50 (Proteus mirabilis [2])?
Its MIC50 is 1 µg/mL (≈ 2.04 µM).

And the MIC90 (Proteus mirabilis [2])?
Its MIC90 is 2 µg/mL (≈ 4.08 µM).

What about the MIC (Serratia marcescens [3]) of the same compound?
Its MIC is 0.25 µg/mL (≈ 0.511 µM).

What about the MIC50 (Serratia marcescens [3]) of the same compound?
Its MIC50 is 0.25 µg/mL (≈ 0.511 µM).

What about the MIC90 (Serratia marcescens [3]) of the same compound?
Its MIC90 is 1 µg/mL (≈ 2.04 µM).

What about the MIC50 (Morganella morganii [4]) of the same compound?
Its MIC50 is 1 µg/mL (≈ 2.04 µM).

And the MIC90 (Morganella morganii [4])?
The MIC90 was 2 µg/mL (≈ 4.08 µM).

And the MIC50 [5]?
Its MIC50 is 0.125 µg/mL (≈ 0.255 µM).

What about the MIC90 [5] of the same compound?
The MIC90 was 1 µg/mL (≈ 2.04 µM).

And the Activity (Klebsiella pneumoniae [6])?
The Activity was 97.6%.

What about the Activity (Proteus mirabilis [7]) of the same compound?
Its Activity is 98.4%.

And the Activity (Serratia marcescens [8])?
The Activity was 100%.

And the Activity (Morganella morganii [9])?
Its Activity is 100%.

What about the Activity [10] of the same compound?
Its Activity is “inactive”.

And the Activity [11]?
Its Activity is 100%.

What about the MIC50 (Escherichia coli [12]) of the same compound?
Its MIC50 is 8 µg/mL (≈ 16.3 µM).

And the MIC90 (Escherichia coli [12])?
Its MIC90 is 64 µg/mL (≈ 131 µM).

What about the MIC50 (Klebsiella pneumoniae [13]) of the same compound?
Its MIC50 is 16 µg/mL (≈ 32.7 µM).

What about the MIC90 (Klebsiella pneumoniae [13]) of the same compound?
The MIC90 was greater than 128 µg/mL.

What about the MIC50 (Klebsiella aerogenes) of the same compound?
The MIC50 was 16 µg/mL (≈ 32.7 µM).

What about the MIC90 (Klebsiella aerogenes) of the same compound?
The MIC90 was greater than 128 µg/mL.

And the MIC50 (Providencia rettgeri)?
The MIC50 was 8 µg/mL (≈ 16.3 µM).

And the MIC90 (Providencia rettgeri)?
The MIC90 was 64 µg/mL (≈ 131 µM).

And the MIC50 [14]?
The MIC50 was 128 µg/mL (≈ 261 µM).

What about the MIC90 [14] of the same compound?
Its MIC90 is greater than 128 µg/mL.

And the Activity (Klebsiella pneumoniae [15])?
The Activity was 32.1%.

What about the Activity (Citrobacter koseri) of the same compound?
The Activity was 7.1%.

And the Activity (Serratia marcescens [16])?
Its Activity is 10%.

And the Activity (Citrobacter freundii)?
The Activity was 52.6%.

And the Activity [17]?
Its Activity is 24%.

And the MIC (Klebsiella pneumoniae [18])?
The MIC was 0.25 µg/mL (≈ 0.511 µM).

What about the MIC (Staphylococcus aureus [19]) of the same compound?
The MIC was 0.125 µg/mL (≈ 0.255 µM).

What about the MIC [20] of the same compound?
Its MIC is 0.25 µg/mL (≈ 0.511 µM).

What about the Activity (Escherichia coli [21]) of the same compound?
Its Activity is “Dose-dependent effect”.

And the Activity (Klebsiella pneumoniae [22])?
Its Activity is “Dose-dependent effect”.

And the Activity (Staphylococcus aureus [23])?
The Activity was “Dose-dependent effect”.

And the Activity [24]?
Its Activity is “Dose-dependent effect”.

What about the Vmax [25] of the same compound?
Its Vmax is 6.5%.

And the Vmax/Km [26]?
Its Vmax/Km is 4.2%.

What about the Vmax [27] of the same compound?
The Vmax was 49.8%.

And the Vmax/Km [28]?
The Vmax/Km was 19.9%.

What about the MIC (Escherichia coli [29]) of the same compound?
Its MIC is 0.25 µg/mL (≈ 0.511 µM).
